{"source": "paper PMC6325200", "about": "“Effects of Microplate Type and Broth Additives on Microdilution MIC Susceptibility Assays” (Antimicrobial Agents and Chemotherapy, 2018)", "key": {"[1]": {"test_system": "E. coli ATCC 25922", "experiment": "microbe, parasite or virus in culture", "method": "(§1) A positive control of a row of just the bacteria and a negative control of only the medium were included for every plate tested.\n(§2) The compounds along with standard antibiotics were serially diluted 2-fold across the 96-well plates. […] A sample of each culture was then diluted 40-fold in fresh MH broth (in presence and absence of Tween) and incubated at 37°C for 2 to 3 h.\nFor experiments in the presence of surfactant, 2% beractant (25 mg/ml) was added to the mid-log-phase cultures and mixed gently and added to all the 96-well plates. For experiments in the presence of serum, a mixture of 50% of human serum along with 50% MHB was prepared and used throughout the experiment."}, "[2]": {"test_system": "E. coli", "settings": "literature value; cited from earlier work"}, "[3]": {"test_system": "over 200 strains", "settings": "0.002% polysorbate added; cited from earlier work", "excerpt": "(§3) Members of the lipopeptide polymyxin class of antibiotics (polymyxin B [compound 7a] and polymyxin E [or colistin, compound 7b]) are important last-line therapeutic agents against many multidrug-resistant Gram-negative bacteria ([27][–][31]). They consist of an N-terminal fatty acid side chain that is attached to a polycationic deca-peptide backbone (Fig. 1) with physicochemical properties similar to those of the lipoglycopeptides. These structural features confer amphipathicity, which is a key feature of many other cationic antimicrobial peptides (CAMPs) ([32][–][34]). As mentioned earlier, p ..."}, "[4]": {"settings": "8 µg/ml, 24 h, cited from earlier work; for % of expected concentration detected: MHB", "excerpt": "as §3"}, "[5]": {"test_system": "K. pneumoniae ATCC 13883", "experiment": "microbe, parasite or virus in culture", "settings": "n = 2", "method": "as §1, §2"}, "[6]": {"test_system": "P. aeruginosa ATCC 10145", "experiment": "microbe, parasite or virus in culture", "settings": "n = 2", "method": "as §1, §2"}, "[7]": {"test_system": "A. baumannii ATCC 19606", "experiment": "microbe, parasite or virus in culture", "settings": "n = 2", "method": "as §1, §2"}, "[8]": {"settings": "literature values, reference given; cited from earlier work", "excerpt": "Other assay additives can affect MIC values. […] Plasma protein binding has been implicated as a major factor limiting the active free concentration of many clinically important antibiotics ([37][–][42])."}}, "note": "Where “and” joins values, the source holds several entries; their conditions need not be identical. Identical values can stand only once. Like-named read-outs stand apart in the source and are kept apart here. Where a SMILES comes first, the peptide text is derived from it. Bridges are numbered along the chain shown (N, C = ends). [ ]: non-standard residue; d: D form. The star is where a group is joined. X1 = CC[C@H](C)CCCCC(=O)*; Dab = NCC[C@H](N)C(=O)O", "data": [{"smiles": "CC[C@H](C)CCCCC(=O)N[C@@H](CCN)C(=O)N[C@H](C(=O)N[C@@H](CCN)C(=O)N[C@H]1CCNC(=O)[C@H]([C@@H](C)O)NC(=O)[C@H](CCN)NC(=O)[C@H](CCN)NC(=O)[C@H](CC(C)C)NC(=O)[C@@H](CC(C)C)NC(=O)[C@H](CCN)NC1=O)[C@@H](C)O", "note": "[Colistin, colistin] (X1-[Dab]T[Dab][Dab][Dab][dL]L[Dab][Dab]T; lactam 4-C (inferred); N-terminus assumed)", "values": [{"measurement": "MIC", "setting": "[1]; Corning NBS, MH + 2% LHB, 2% LS, n = 2", "value": "0.03 to 0.06", "unit": "µg/mL"}, {"measurement": "MIC", "setting": "[1]; Corning NBS, MH + 2% LHB, 50% HS, n = 2", "value": "≤0.03", "unit": "µg/mL"}, {"measurement": "MIC", "setting": "[1]; Corning NBS, MH + 2% LHB, no additive, n = 2", "value": "≤0.03", "unit": "µg/mL"}, {"measurement": "MIC", "setting": "[1]; Corning NBS, MH + T80, 2% LS, n = 2", "value": "0.03 to 0.06", "unit": "µg/mL"}, {"measurement": "MIC", "setting": "[1]; Corning NBS, MH + T80, 50% HS, n = 2", "value": "≤0.03", "unit": "µg/mL"}, {"measurement": "MIC", "setting": "[1]; Corning NBS, MH, 2% LS, n = 2", "value": "≤0.03", "unit": "µg/mL"}, {"measurement": "MIC", "setting": "[1]; Corning NBS, MH, 50% HS, n = 2", "value": "≤0.03", "unit": "µg/mL"}, {"measurement": "MIC", "setting": "[1]; Corning PS plate, MHB −T80, no additive, n = 2", "value": 0.06, "unit": "µg/mL"}, {"measurement": "MIC", "setting": "[1]; Corning PS, MH + 2% LHB, 2% LS, n = 2", "value": "0.06 to 0.125", "unit": "µg/mL"}, {"measurement": "MIC", "setting": "[1]; Corning PS, MH + 2% LHB, 50% HS, n = 2", "value": "≤0.03", "unit": "µg/mL"}, {"measurement": "MIC", "setting": "[1]; Corning PS, MH + 2% LHB, no additive, n = 2", "value": 1, "unit": "µg/mL"}, {"measurement": "MIC", "setting": "[1]; Corning PS, MH + T80, 2% LS, n = 2", "value": "0.03 to 0.06", "unit": "µg/mL"}, {"measurement": "MIC", "setting": "[1]; Corning PS, MH + T80, 50% HS, n = 2", "value": "≤0.03", "unit": "µg/mL"}, {"measurement": "MIC", "setting": "[1]; Corning PS, MH, 2% LS, n = 2", "value": "0.06 to 0.25", "unit": "µg/mL"}, {"measurement": "MIC", "setting": "[1]; Corning PS, MH, 50% HS, n = 2", "value": "≤0.03", "unit": "µg/mL"}, {"measurement": "MIC", "setting": "[1]; Corning TC plate, MHB +0.002% T80, no further additive, n = 2", "value": 1, "unit": "µg/mL"}, {"measurement": "MIC", "setting": "[1]; Corning TC plate, MHB −T80, no additive, n = 2", "value": "0.5 to 1", "unit": "µg/mL"}, {"measurement": "MIC", "setting": "[1]; Corning TC, MH + 2% LHB, 2% LS, n = 2", "value": "2 to 4", "unit": "µg/mL"}, {"measurement": "MIC", "setting": "[1]; Corning TC, MH + 2% LHB, 50% HS, n = 2", "value": "0.25 to 0.5", "unit": "µg/mL"}, {"measurement": "MIC", "setting": "[1]; Corning TC, MH + 2% LHB, no additive, n = 2", "value": "≤0.03", "unit": "µg/mL"}, {"measurement": "MIC", "setting": "[1]; Corning TC, MH + T80, 2% LS, n = 2", "value": "1 to 2", "unit": "µg/mL"}, {"measurement": "MIC", "setting": "[1]; Corning TC, MH + T80, 50% HS, n = 2", "value": "0.25 to 0.5", "unit": "µg/mL"}, {"measurement": "MIC", "setting": "[1]; Corning TC, MH, 2% LS, n = 2", "value": "0.5 to 1", "unit": "µg/mL"}, {"measurement": "MIC", "setting": "[1]; Corning TC, MH, 50% HS, n = 2", "value": "0.125 to 0.5", "unit": "µg/mL"}, {"measurement": "MIC", "setting": "[1]; NBS plates", "value": "≤ 0.03", "unit": "µg/mL"}, {"measurement": "MIC", "setting": "[1]; Nunc PS plate, MHB +0.002% T80, n = 2", "value": "≤0.03", "unit": "µg/mL"}, {"measurement": "MIC", "setting": "[1]; Nunc PS plate, MHB −T80, n = 2", "value": "0.125 to 1", "unit": "µg/mL"}, {"measurement": "MIC", "setting": "[1]; Nunc U TC plate, MHB +0.002% T80, n = 2", "value": 2, "unit": "µg/mL"}, {"measurement": "MIC", "setting": "[1]; Nunc U TC plate, MHB −T80, n = 2", "value": "0.5 to 1", "unit": "µg/mL"}, {"measurement": "MIC", "setting": "[1]; Nunc flat TC plate, MHB +0.002% T80, n = 2", "value": "1 to 2", "unit": "µg/mL"}, {"measurement": "MIC", "setting": "[1]; Nunc flat TC plate, MHB −T80, n = 2", "value": "1 to 2", "unit": "µg/mL"}, {"measurement": "MIC", "setting": "[1]; PS plates", "value": "≤0.03 to 1", "unit": "µg/mL"}, {"measurement": "MIC", "setting": "[1]; PS plates with T80", "value": "≤0.03 to 0.25", "unit": "µg/mL"}, {"measurement": "MIC", "setting": "[1]; TC plates", "value": "0.5 to 4", "unit": "µg/mL"}, {"measurement": "MIC", "setting": "[1]; Trek PS plate, MHB +0.002% T80, no further additive, n = 2", "value": "≤0.03", "unit": "µg/mL"}, {"measurement": "MIC", "setting": "[1]; Trek PS plate, MHB −T80, no additive, n = 2", "value": "≤0.03", "unit": "µg/mL"}, {"measurement": "MIC", "setting": "[1]; Trek PS, MH + 2% LHB, 2% LS, n = 2", "value": "≤0.03", "unit": "µg/mL"}, {"measurement": "MIC", "setting": "[1]; Trek PS, MH + 2% LHB, 50% HS, n = 2", "value": "0.03 to 0.06", "unit": "µg/mL"}, {"measurement": "MIC", "setting": "[1]; Trek PS, MH + 2% LHB, no additive, n = 2", "value": "0.03 to 0.06", "unit": "µg/mL"}, {"measurement": "MIC", "setting": "[1]; Trek PS, MH + T80, 2% LS, n = 2", "value": "≤0.03", "unit": "µg/mL"}, {"measurement": "MIC", "setting": "[1]; Trek PS, MH + T80, 50% HS, n = 2", "value": "≤0.03", "unit": "µg/mL"}, {"measurement": "MIC", "setting": "[1]; Trek PS, MH, 2% LS, n = 2", "value": "≤0.03", "unit": "µg/mL"}, {"measurement": "MIC", "setting": "[1]; Trek PS, MH, 50% HS, n = 2", "value": "≤0.03", "unit": "µg/mL"}, {"measurement": "MIC (literature)", "setting": "[2]", "value": "0.5–2 ([70]) µg/ml"}, {"measurement": "more potent MICs with surfactant present", "setting": "[3]", "value": "4- to 8 fold"}, {"measurement": "% of concentration remaining", "setting": "[4]; Greiner untreated PS microwell plates", "value": 2, "unit": "%"}, {"measurement": "% of expected concentration detected", "setting": "[4]; PP tubes", "value": 90, "unit": "%"}, {"measurement": "% of expected concentration detected", "setting": "[4]; PS tubes", "value": 84, "unit": "%"}, {"measurement": "% of expected concentration detected", "setting": "[4]; glass tubes", "value": 80, "unit": "%"}, {"measurement": "% of concentration remaining", "setting": "[4]; Nunc untreated PS microwell plates", "value": 70, "unit": "%"}, {"measurement": "MIC", "setting": "[5]; Corning NBS, MHB +T80", "value": "≤ 0.03", "unit": "µg/mL"}, {"measurement": "MIC", "setting": "[5]; Corning NBS, MHB -T80", "value": "≤ 0.03", "unit": "µg/mL"}, {"measurement": "MIC", "setting": "[5]; Corning PS, MHB +T80", "value": "≤ 0.03", "unit": "µg/mL"}, {"measurement": "MIC", "setting": "[5]; Corning PS, MHB -T80", "value": "0.125 to 0.25", "unit": "µg/mL"}, {"measurement": "MIC", "setting": "[5]; Corning TC, MHB +T80", "value": "0.25 to 0.5", "unit": "µg/mL"}, {"measurement": "MIC", "setting": "[5]; Corning TC, MHB -T80", "value": 2, "unit": "µg/mL"}, {"measurement": "MIC", "setting": "[6]; Corning NBS, MHB +T80", "value": 0.125, "unit": "µg/mL"}, {"measurement": "MIC", "setting": "[6]; Corning NBS, MHB -T80", "value": 0.06, "unit": "µg/mL"}, {"measurement": "MIC", "setting": "[6]; Corning PS, MHB +T80", "value": "0.25 to 0.5", "unit": "µg/mL"}, {"measurement": "MIC", "setting": "[6]; Corning PS, MHB -T80", "value": "0.25 to 0.5", "unit": "µg/mL"}, {"measurement": "MIC", "setting": "[6]; Corning TC, MHB +T80", "value": "1 to 2", "unit": "µg/mL"}, {"measurement": "MIC", "setting": "[6]; Corning TC, MHB -T80", "value": "0.5 to 2", "unit": "µg/mL"}, {"measurement": "MIC", "setting": "[7]; Corning NBS, MHB +T80", "value": "≤ 0.03", "unit": "µg/mL"}, {"measurement": "MIC", "setting": "[7]; Corning NBS, MHB -T80", "value": "≤ 0.03", "unit": "µg/mL"}, {"measurement": "MIC", "setting": "[7]; Corning PS, MHB +T80", "value": 0.06, "unit": "µg/mL"}, {"measurement": "MIC", "setting": "[7]; Corning PS, MHB -T80", "value": "0.06 to 0.125", "unit": "µg/mL"}, {"measurement": "MIC", "setting": "[7]; Corning TC, MHB +T80", "value": "1 to 2", "unit": "µg/mL"}, {"measurement": "MIC", "setting": "[7]; Corning TC, MHB -T80", "value": "0.5 to 1", "unit": "µg/mL"}, {"measurement": "protein binding", "setting": "[8]", "value": "50 to 60% and 60%"}]}]}
